Tests used:
hCA XII = hCA XII (Homo sapiens, UniProt O43570); test: stopped-flow CO2 hydrase assay, hCA XII; type: biochemical
hCA I = hCA I (Homo sapiens, UniProt P00915); test: stopped-flow CO2 hydrase assay, hCA I; type: biochemical
hCA II = hCA II (Homo sapiens, UniProt P00918); test: stopped-flow CO2 hydrase assay, hCA II; type: biochemical
hCA IX = hCA IX (Homo sapiens, UniProt Q16790); test: biochemical

Sequence of hCA XII (O43570 25-354): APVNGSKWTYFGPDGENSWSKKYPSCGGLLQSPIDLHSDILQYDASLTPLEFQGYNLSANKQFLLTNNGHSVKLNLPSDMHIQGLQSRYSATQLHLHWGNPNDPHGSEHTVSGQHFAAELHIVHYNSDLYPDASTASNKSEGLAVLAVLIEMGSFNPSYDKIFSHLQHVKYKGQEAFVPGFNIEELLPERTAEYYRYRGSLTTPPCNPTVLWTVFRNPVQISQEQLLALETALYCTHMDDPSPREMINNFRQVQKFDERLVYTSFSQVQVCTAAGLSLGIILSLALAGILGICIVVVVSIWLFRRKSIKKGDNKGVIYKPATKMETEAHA
Sequence of hCA I (P00915 whole entry): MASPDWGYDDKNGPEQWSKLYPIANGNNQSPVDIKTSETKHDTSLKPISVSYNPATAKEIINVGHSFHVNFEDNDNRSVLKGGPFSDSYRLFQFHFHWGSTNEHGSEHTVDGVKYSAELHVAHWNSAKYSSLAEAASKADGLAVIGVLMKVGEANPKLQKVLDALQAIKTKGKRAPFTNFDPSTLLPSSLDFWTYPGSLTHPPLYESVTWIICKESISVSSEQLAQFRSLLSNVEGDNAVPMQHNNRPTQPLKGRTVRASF

Ki (hCA XII) [µM]	Ki (hCA I) [µM]	Ki (hCA II) [µM]	Ki (hCA IX) [µM]	Compound
9.5	> 100	> 100	90.9	O=C(c1c(O)c2ccccc2oc1=O)N1CCN(S(=O)(=O)c2ccccc2)CC1 [16b, 4-Hydroxy-3–(4-(phenylsulfonyl)piperazine-1-carbonyl)-2H-chromen-2-one]
36.5	> 100	> 100	> 100	O=C(c1c(O)c2ccccc2oc1=O)N1CCN(S(=O)(=O)c2ccc(Br)s2)CC1 [16c, 3–(4-((5-Bromothiophen-2-yl)sulphonyl)piperazine-1-carbonyl)-4-hydroxy-2H-chromene-2-one]
86.6	> 100	> 100	> 100	O=C(c1cc2ccc(O)cc2oc1=O)N1CCN(S(=O)(=O)c2ccc(F)cc2)CC1 [12a, 3–(4-((4-Fluorophenyl)sulphonyl)piperazine-1-carbonyl)-7-hydroxy-2H-chromen-2-one]
9.4	> 100	> 100	8.9	C/C(=N\OCc1ccc(Cl)cc1)c1cc2ccccc2oc1=O [20b, (E)-3–(1-(((4-chlorobenzyl)oxy)imino)ethyl)-2H-chromen-2-one]
9.3	> 100	> 100	> 100	O=C(c1cc2ccc(O)cc2oc1=O)N1CCN(S(=O)(=O)c2ccccc2)CC1 [12b, 7-Hydroxy-3–(4-(phenylsulfonyl)piperazine-1-carbonyl)-2H-chromen-2-one]
> 100	> 100	> 100	50.7	O=C(c1cc2ccc(O)cc2oc1=O)N1CCN(S(=O)(=O)c2ccc(Br)s2)CC1 [12c, 3–(4-((5-Bromothiophen-2-yl)sulphonyl)piperazine-1-carbonyl)-7-hydroxy-2H-chromen-2-one]
92.2	> 100	> 100	> 100	O=C(c1c(O)c2ccccc2oc1=O)N1CCN(S(=O)(=O)c2ccc(F)cc2)CC1 [16a, 3–(4-((4-Fluorophenyl)sulphonyl)piperazine-1-carbonyl)-4-hydroxy-2H-chromen-2-one]
9.1	> 100	> 100	7.1	O=C(c1cc2ccccc2oc1=O)N1CCN(S(=O)(=O)c2ccc([N+](=O)[O-])cc2)CC1 [6a, 3–(4-((4-Nitrophenyl)sulphonyl)piperazine-1-carbonyl)-2H-chromen-2-one]
47.8	> 100	> 100	72	O=C(c1cc2ccccc2oc1=O)N1CCN(C(=S)Nc2ccccc2Cl)CC1 [7a, N-(2-chlorophenyl)-4–(2-oxo-2H-chromene-3-carbonyl)piperazine-1-carbothioamide]
9.8	> 100	> 100	5.56	O=C(c1cc2ccccc2oc1=O)N1CCN(S(=O)(=O)c2ccc(Br)s2)CC1 [6d, 3–(4-((5-Bromothiophen-2-yl)sulphonyl)piperazine-1-carbonyl)-2H-chromen-2-one]
66.7	> 100	> 100		O=C(c1cc2ccccc2oc1=O)N1CCN(S(=O)(=O)c2cccs2)CC1 [6c, 3–(4-(Thiophen-2-ylsulfonyl)piperazine-1-carbonyl)-2H-chromen-2-one]
8	> 100	> 100	9.2	O=C(c1cc2ccccc2oc1=O)N1CCN(C(=S)Nc2ccc(Cl)cc2)CC1 [7b, N-(4-chlorophenyl)-4–(2-oxo-2H-chromene-3-carbonyl)piperazine-1-carbothioamide]
31.8	> 100	> 100		O=C(c1cc2ccccc2oc1=O)N1CCN(C(=S)Nc2ccccc2)CC1 [7c, 4–(2-Oxo-2H-chromene-3-carbonyl)-N-phenylpiperazine-1-carbothioamide]
	> 100	> 100	62.1	C/C(=N\OCc1ccc(F)cc1)c1cc2ccccc2oc1=O [20a, (E)-3–(1-(((4-fluorobenzyl)oxy)imino)ethyl)-2H-chromen-2-one]
26.1	> 100	> 100	37.8	CCS(=O)(=O)N1CCN(C(=O)c2cc3ccccc3oc2=O)CC1 [6e, 3–(4-(Ethylsulfonyl)piperazine-1-carbonyl)-2H-chromen-2-one]
